Measured values from PubChem BioAssay AID248 (DTP/NCI, 2004).
“And” between values parts separate entries of the source, which are not always exact repeats. Equal values may be shown once. Toxic doses and inconclusive results are not listed. Rule as the data show it: active = T/C of 150% or more; inactive = T/C below 125%. Peptide text beside a SMILES is read from it. * marks the point of attachment. Cbz = O=C(OCc1ccccc1)*; CH2Cl = ClC*

Test system: L1210 leukemia ip in BDF1 mice, survival T/C
Test: NCI In Vivo Anticancer Drug Screen. Data for tumor model L1210 Leukemia (intraperitoneal) in B6D2F1 (BDF1) mice
Details: endpoint: mean survival time, higher = longer survival
How it was run: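 Tumor was transplanted into mice, which were then dosed with test compound or vehicle alone. Survival was recorded for each group, and the treated figure was expressed relative to the control figure.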

[1] = dose: 100.0 mg/kg/injection, schedule: Q04DX003 (ip), vehicle: saline with Tween-80
[2] = dose: 200.0 mg/kg/injection, schedule: Q04DX003 (ip), vehicle: saline with Tween-80
[3] = dose: 400.0 mg/kg/injection, schedule: Q04DX003 (ip), vehicle: saline with Tween-80
[4] = dose: 100.0 mg/kg/injection, schedule: Q04DX002 (ip), vehicle: saline
[5] = dose: 50.0 mg/kg/injection, schedule: Q04DX003 (ip), vehicle: Klucel (hydroxypropylcellulose) (HPC)
[6] = dose: 50.0 mg/kg/injection, schedule: Q01DX009 (ip), vehicle: Klucel (hydroxypropylcellulose) (HPC)
[7] = dose: 100.0 mg/kg/injection, schedule: Q01DX009 (ip), vehicle: Klucel (hydroxypropylcellulose) (HPC)
[8] = dose: 100.0 mg/kg/injection, schedule: Q04DX003 (ip), vehicle: Klucel (hydroxypropylcellulose) (HPC)
[9] = dose: 200.0 mg/kg/injection, schedule: Q01DX009 (ip), vehicle: Klucel (hydroxypropylcellulose) (HPC)
[10] = dose: 200.0 mg/kg/injection, schedule: Q04DX003 (ip), vehicle: Klucel (hydroxypropylcellulose) (HPC)
[11] = dose: 100.0 mg/kg/injection, schedule: Q01DX001 (ip), vehicle: carboxymethylcellulose (CMC)
[12] = dose: 200.0 mg/kg/injection, schedule: Q01DX001 (ip), vehicle: carboxymethylcellulose (CMC)
[13] = dose: 400.0 mg/kg/injection, schedule: Q01DX001 (ip), vehicle: carboxymethylcellulose (CMC)
[14] = dose: 100.0 mg/kg/injection, schedule: Q04DX003 (ip), vehicle: saline
[15] = dose: 200.0 mg/kg/injection, schedule: Q04DX003 (ip), vehicle: saline
[16] = dose: 400.0 mg/kg/injection, schedule: Q04DX003 (ip), vehicle: saline
[17] = dose: 100.0 mg/kg/injection, schedule: Q01DX001 (ip), vehicle: saline
[18] = dose: 200.0 mg/kg/injection, schedule: Q01DX001 (ip), vehicle: saline

Measured: T/C

CCN(CC)S(=O)(=O)c1cccc(C(=O)CC(O)(C(F)(F)F)C(F)(F)F)c1
inactive: [1] 94 % of control | [2] 102 % of control | [3] 108 % of control

CC(=O)CCC(C#N)c1ccccc1 (configuration not stated)
inactive: dose: 25.0 mg/kg/injection, schedule: Q04DX002 (ip), vehicle: saline 104 % of control | dose: 50.0 mg/kg/injection, schedule: Q04DX002 (ip), vehicle: saline 107 % of control | [4] 93 % of control and 111 % of control

CC(C)CC(NC(=O)CNC(=O)OCc1ccccc1)C(=O)NC(Cc1ccccc1)C(=O)CCl (stereo not drawn) (Cbz-Gly-Leu-Phe-CH2Cl; configuration not given here)
inactive: dose: 25.0 mg/kg/injection, schedule: Q04DX003 (ip), vehicle: Klucel (hydroxypropylcellulose) (HPC) 102 % of control | [5] 106 % of control | dose: 75.0 mg/kg/injection, schedule: Q04DX003 (ip), vehicle: Klucel (hydroxypropylcellulose) (HPC) 94 % of control and 90 % of control | dose: 100.0 mg/kg/injection, schedule: Q01DX001 (ip), vehicle: Klucel (hydroxypropylcellulose) (HPC) 92 % of control | dose: 200.0 mg/kg/injection, schedule: Q01DX001 (ip), vehicle: Klucel (hydroxypropylcellulose) (HPC) 92 % of control

COc1cccc2c(=O)c(C(=O)O)c[nH]c12
inactive: [6] 101 % of control | [5] 94 % of control | [7] 106 % of control | [4] 96 % of control | [8] 91 % of control | [9] 107 % of control | dose: 200.0 mg/kg/injection, schedule: Q04DX002 (ip), vehicle: saline 96 % of control | [10] 94 % of control | dose: 400.0 mg/kg/injection, schedule: Q04DX002 (ip), vehicle: saline 100 % of control

CC(=O)C1CCC2C3=CC=C4CC(O)CCC4(C)C3=CCC12C (configuration not stated)
inactive: [8] 96 % of control | [10] 93 % of control | dose: 400.0 mg/kg/injection, schedule: Q04DX003 (ip), vehicle: Klucel (hydroxypropylcellulose) (HPC) 93 % of control

CC(C)(C)OC(=O)N1CCCC1C(=O)O (configuration not stated)
inactive: [11] 109 % of control | [12] 104 % of control | [13] 95 % of control

CN(C(=O)c1ccccc1C(=O)c1n[nH]c2ccccc12)c1ccccc1
inactive: dose: 50.0 mg/kg/injection, schedule: Q04DX002 (ip), vehicle: Klucel (hydroxypropylcellulose) (HPC) 104 % of control | dose: 100.0 mg/kg/injection, schedule: Q04DX002 (ip), vehicle: Klucel (hydroxypropylcellulose) (HPC) 97 % of control | dose: 200.0 mg/kg/injection, schedule: Q04DX002 (ip), vehicle: Klucel (hydroxypropylcellulose) (HPC) 104 % of control

O=C1CCN2C=CC=CC2=N1
inactive: dose: 100.0 mg/kg/injection, schedule: Q01DX009 (ip), vehicle: saline 98 % of control | [14] 100 % of control | dose: 200.0 mg/kg/injection, schedule: Q01DX009 (ip), vehicle: saline 93 % of control | [15] 101 % of control | dose: 400.0 mg/kg/injection, schedule: Q01DX009 (ip), vehicle: saline 97 % of control | [16] 106 % of control

O=c1[nH]cnc2nc(-c3ccc(Cl)cc3)c(-c3ccc(Cl)cc3)nc12
inactive: [6] 92 % of control | [7] 103 % of control | [9] 92 % of control

O=C(O)C1CC=CCC1c1c2ccc(=O)cc-2oc2cc(O)ccc12 (configuration not stated)
inactive: [14] 98 % of control | [15] 94 % of control | [16] 91 % of control

CC(C)CCC(CCC(C)C)NCC(C)OC(=O)c1ccc(N)cc1 (configuration not stated)
inactive: dose: 75.0 mg/kg/injection, schedule: Q01DX001 (ip), vehicle: carboxymethylcellulose (CMC) 93 % of control | dose: 150.0 mg/kg/injection, schedule: Q01DX001 (ip), vehicle: carboxymethylcellulose (CMC) 89 % of control

Cc1ccc(C)c(NC(=O)N(Cc2ccccc2)Cc2ccccc2)c1
inactive: [7] 94 % of control | [9] 91 % of control | dose: 400.0 mg/kg/injection, schedule: Q01DX009 (ip), vehicle: Klucel (hydroxypropylcellulose) (HPC) 96 % of control

COc1ccc(-c2c(C(=O)O)cccc2[N+](=O)[O-])c(OC)c1
inactive: dose: 100.0 mg/kg/injection, schedule: Q01DX003 (ip), vehicle: Klucel (hydroxypropylcellulose) (HPC) 98 % of control | dose: 200.0 mg/kg/injection, schedule: Q01DX003 (ip), vehicle: Klucel (hydroxypropylcellulose) (HPC) 91 % of control | dose: 400.0 mg/kg/injection, schedule: Q01DX003 (ip), vehicle: Klucel (hydroxypropylcellulose) (HPC) 86 % of control

CC(=O)OC1OC(COC(=O)c2ccc([N+](=O)[O-])cc2)C(NC(=O)C(F)(F)F)C1OC(C)=O (configuration not stated)
inactive: [14] 90 % of control | [15] 96 % of control | [16] 95 % of control

CCCCNP(=S)(NCCCC)c1ccccc1
inactive: [17] 98 % of control | [18] 93 % of control | dose: 400.0 mg/kg/injection, schedule: Q01DX001 (ip), vehicle: saline 95 % of control

CC(C)=CC(=O)OC(=O)C=C(C)C
inactive: dose: 100.0 mg/kg/injection, schedule: Q01DX009 (ip), vehicle: other 105 % of control | [1] 98 % of control | dose: 200.0 mg/kg/injection, schedule: Q01DX009 (ip), vehicle: other 88 % of control | [2] 96 % of control | dose: 400.0 mg/kg/injection, schedule: Q01DX009 (ip), vehicle: other 91 % of control | [3] 89 % of control

ClCCC(c1ccccc1)N1CCCCC1 (configuration not stated)
inactive: dose: 44.0 mg/kg/injection, schedule: Q01DX001 (ip), vehicle: saline 97 % of control and 106 % of control | dose: 66.0 mg/kg/injection, schedule: Q01DX001 (ip), vehicle: saline 96 % of control and 97 % of control | dose: 150.0 mg/kg/injection, schedule: Q01DX001 (ip), vehicle: saline 97 % of control and 92 % of control | [18] 93 % of control

Cc1ccc(NCc2ccccc2)cc1
inactive: dose: 100.0 mg/kg/injection, schedule: Q04DX003 (ip), vehicle: other 112 % of control | dose: 200.0 mg/kg/injection, schedule: Q04DX003 (ip), vehicle: other 92 % of control

Nc1[nH]c(=S)[nH]c(=O)c1N=Nc1c(Br)cc(S(N)(=O)=O)cc1Br
inactive: [11] 94 % of control | [12] 100 % of control | [13] 103 % of control

CCNC(C)(C)C(SS)c1ccc(Br)cc1 (configuration not stated)
inactive: dose: 6.25 mg/kg/injection, schedule: Q01DX009 (ip), vehicle: water 98 % of control | dose: 12.5 mg/kg/injection, schedule: Q01DX009 (ip), vehicle: water 96 % of control | dose: 25.0 mg/kg/injection, schedule: Q01DX009 (ip), vehicle: water 94 % of control | dose: 50.0 mg/kg/injection, schedule: Q01DX009 (ip), vehicle: water 94 % of control and 91 % of control | dose: 100.0 mg/kg/injection, schedule: Q01DX009 (ip), vehicle: water 101 % of control | dose: 200.0 mg/kg/injection, schedule: Q01DX009 (ip), vehicle: water 93 % of control | dose: 400.0 mg/kg/injection, schedule: Q01DX009 (ip), vehicle: water 93 % of control

CC(C1=C(CCN(C)C)Cc2ccccc21)c1ccccn1 (configuration not stated)
inactive: [17] 107 % of control

Nc1ccc(Cl)c(Cl)c1
inactive: dose: 50.0 mg/kg/injection, schedule: Q01DX001 (ip), vehicle: carboxymethylcellulose (CMC) 98 % of control | dose: 50.0 mg/kg/injection, schedule: Q01DX009 (ip), vehicle: alcohol 101 % of control | dose: 50.0 mg/kg/injection, schedule: Q01DX009 (ip), vehicle: saline with Tween-80 92 % of control | dose: 50.0 mg/kg/injection, schedule: Q04DX003 (ip), vehicle: saline with Tween-80 104 % of control | [11] 93 % of control | dose: 100.0 mg/kg/injection, schedule: Q01DX009 (ip), vehicle: alcohol 109 % of control | dose: 100.0 mg/kg/injection, schedule: Q01DX009 (ip), vehicle: saline with Tween-80 94 % of control | dose: 100.0 mg/kg/injection, schedule: Q04DX003 (ip), vehicle: alcohol 114 % of control | [1] 104 % of control | [12] 95 % of control | dose: 200.0 mg/kg/injection, schedule: Q01DX009 (ip), vehicle: alcohol 90 % of control | dose: 200.0 mg/kg/injection, schedule: Q01DX009 (ip), vehicle: saline with Tween-80 95 % of control | dose: 200.0 mg/kg/injection, schedule: Q04DX003 (ip), vehicle: alcohol 97 % of control | [2] 104 % of control
